Experiment [1] deals with T1, human TOR (Homo sapiens, UniProt P42345).
T1 construct: FLAG
Nature of the experiment: mTOR enzyme assay (DELFIA, His6-S6K substrate). Type of experiment: biochemical.

Experiment [2] concerns the target PI3K-alpha (Homo sapiens, UniProt P42336). Briefly: PI3K-alpha fluorescence polarization assay. In kind it is biochemical.
Where [3] appears, read: read-out: mTOR Kinase Avg. IC50.

In patent publication US20090311217A1, “3-SUBSTITUTED-1H-INDOLE COMPOUNDS, THEIR USE AS MTOR KINASE AND PI3 KINASE INHIBITORS, AND THEIR SYNTHESES” (priority 2008, published 2009) one finds IC50 data, which are given here for 25 molecules.

The structures appear in SMILES notation. Where two headings read alike, the source gives them in different places.

By IC50 is commonly meant the point on the concentration scale where inhibition reaches its midpoint.

Chain of PI3K-alpha (P42336 whole entry, species assumed): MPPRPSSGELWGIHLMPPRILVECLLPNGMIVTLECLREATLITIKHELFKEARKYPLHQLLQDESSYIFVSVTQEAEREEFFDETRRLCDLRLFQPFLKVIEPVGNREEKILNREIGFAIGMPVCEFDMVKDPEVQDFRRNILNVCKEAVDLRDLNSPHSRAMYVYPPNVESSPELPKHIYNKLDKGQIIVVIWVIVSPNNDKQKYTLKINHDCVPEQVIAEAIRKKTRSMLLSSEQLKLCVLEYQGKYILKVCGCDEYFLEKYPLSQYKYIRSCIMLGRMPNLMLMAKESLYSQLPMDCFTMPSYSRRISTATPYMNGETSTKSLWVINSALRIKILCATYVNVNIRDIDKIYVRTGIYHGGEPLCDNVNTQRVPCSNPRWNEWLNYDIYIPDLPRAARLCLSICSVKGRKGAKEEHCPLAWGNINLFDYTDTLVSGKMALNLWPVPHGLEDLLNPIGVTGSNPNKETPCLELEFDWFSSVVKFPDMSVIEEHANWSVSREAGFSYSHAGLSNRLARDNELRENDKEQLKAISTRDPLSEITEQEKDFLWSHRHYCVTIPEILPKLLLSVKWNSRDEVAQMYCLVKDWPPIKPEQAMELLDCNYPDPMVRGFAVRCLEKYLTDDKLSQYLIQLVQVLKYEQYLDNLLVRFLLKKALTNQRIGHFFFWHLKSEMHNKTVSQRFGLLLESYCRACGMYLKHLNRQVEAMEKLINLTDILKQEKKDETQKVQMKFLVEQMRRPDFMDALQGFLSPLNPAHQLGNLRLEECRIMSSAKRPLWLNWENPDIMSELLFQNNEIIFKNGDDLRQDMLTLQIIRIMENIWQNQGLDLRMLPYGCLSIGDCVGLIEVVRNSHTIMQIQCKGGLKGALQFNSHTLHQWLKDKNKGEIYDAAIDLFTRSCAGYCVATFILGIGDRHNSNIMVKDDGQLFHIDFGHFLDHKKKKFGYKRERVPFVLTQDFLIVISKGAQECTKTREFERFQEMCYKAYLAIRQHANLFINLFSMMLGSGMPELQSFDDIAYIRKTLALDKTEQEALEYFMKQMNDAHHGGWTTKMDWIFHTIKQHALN
Chain of PI3K-alpha (P27986 whole entry partner, species assumed): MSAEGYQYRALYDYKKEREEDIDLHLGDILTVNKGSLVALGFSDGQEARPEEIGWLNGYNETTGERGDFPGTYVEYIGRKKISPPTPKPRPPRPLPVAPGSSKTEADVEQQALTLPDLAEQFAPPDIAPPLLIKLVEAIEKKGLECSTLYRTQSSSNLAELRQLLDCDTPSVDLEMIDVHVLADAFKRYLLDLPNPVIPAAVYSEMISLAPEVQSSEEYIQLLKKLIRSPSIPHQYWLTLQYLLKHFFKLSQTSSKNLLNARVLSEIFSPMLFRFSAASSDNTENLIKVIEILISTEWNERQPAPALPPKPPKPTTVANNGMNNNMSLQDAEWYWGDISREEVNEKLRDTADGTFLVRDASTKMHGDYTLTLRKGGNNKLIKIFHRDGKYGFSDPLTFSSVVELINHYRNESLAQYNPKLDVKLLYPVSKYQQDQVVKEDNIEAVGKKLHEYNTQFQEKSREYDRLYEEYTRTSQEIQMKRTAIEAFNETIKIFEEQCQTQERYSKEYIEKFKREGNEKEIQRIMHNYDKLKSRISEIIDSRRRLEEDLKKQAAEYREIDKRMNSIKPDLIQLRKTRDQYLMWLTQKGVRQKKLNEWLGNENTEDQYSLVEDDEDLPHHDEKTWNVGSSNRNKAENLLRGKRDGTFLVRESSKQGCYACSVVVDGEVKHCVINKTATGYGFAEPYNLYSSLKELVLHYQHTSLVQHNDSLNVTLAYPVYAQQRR

Consider `O=C1/C(=C/c2cn(Cc3ccccc3)c3ccccc23)Oc2cc(O)cc(O)c21` [Example 51, (2Z)-2-[(1-benzyl-1H-indol-3-yl)methylene]-4,6-dihydroxy-1-benzofuran-3(2H)-one], for which the values for the IC50 in experiment [1] (setting [3]) and in experiment [2] (read-out: PI3Kα Avg. IC50) were more than 5 µM and more than 10 µM, respectively.
In the case of `O=C1C(=Cc2c[nH]c3ccc(OCc4ccccc4)cc23)Oc2cc(O)cc(O)c21` [Example 52, 2-{[5-(benzyloxy)-1H-indol-3-yl]methylene}-4,6-dihydroxy-1-benzofuran-3(2H)-one], the IC50 in experiment [1] (setting [3]) was more than 5 µM; in experiment [2] (read-out: PI3Kα Avg. IC50) it was 1.89 µM.
The like results for `O=C1/C(=C/c2c[nH]c3ccc(Cl)cc23)Oc2c1ccc(O)c2O` [Example 63, (2Z)-2-[(5-chloro-1H-indol-3-yl)methylene]-6,7-dihydroxy-1-benzofuran-3(2H)-one] were, in that order, more than 20 µM and 0.431 µM.
As to `O=C1C(=Cc2c(-c3ccccn3)[nH]c3ccccc23)Oc2cc(O)cc(O)c21` [Example 72, 4,6-dihydroxy-2-[(2-pyridin-2-yl-1H-indol-3-yl)methylene]-1-benzofuran-3(2H)-one], the IC50 in experiment [1] (mTOR Kinase Avg. IC50) turned out to be 0.0213 µM; in experiment [2] (PI3Kα Avg. IC50), 3.65 µM.
For the molecule `O=C1C(=Cc2c[nH]c3ccccc23)Oc2cccc(O)c21` [Example 74, 4-hydroxy-2-(1H-indol-3-ylmethylene)-1-benzofuran-3(2H)-one], the IC50 in experiment [1] (setting [3]) was determined as 9.8 µM; in experiment [2] (read-out: PI3Kα Avg. IC50), 12 µM.
As to `O=C1C(=Cc2c(-c3ccccc3)[nH]c3ccccc23)Oc2cccc(O)c21` [Example 75, 4-hydroxy-2-[(2-phenyl-1H-indol-3-yl)methylene]-1-benzofuran-3(2H)-one], the figures for the IC50 in experiment [1] (setting [3]) and in experiment [2] (read-out: PI3Kα Avg. IC50) were 5.9 µM and 2.52 µM, respectively.
Consider `O=C1C(=Cc2c(-c3ccc(Cl)cc3)[nH]c3ccccc23)Oc2cccc(O)c21` [Example 76, 2-{[2-(4-chlorophenyl)-1H-indol-3-yl]methylene}-4-hydroxy-1-benzofuran-3(2H)-one], for which the figures for the IC50 in experiment [1] (setting [3]) and in experiment [2] (read-out: PI3Kα Avg. IC50) were 10 µM and more than 10 µM, respectively.
On to `O=C1C(=Cc2c[nH]c3ccc(Br)cc23)Oc2cccc(O)c21` [Example 77, 2-[(5-bromo-1H-indol-3-yl)methylene]-4-hydroxy-1-benzofuran-3(2H)-one], for which the IC50 in experiment [1] (setting [3]) was 17.5 µM; in experiment [2] (read-out: PI3Kα Avg. IC50), more than 10 µM.
The like results for `O=C1C(=Cc2c(Br)[nH]c3ccccc23)Oc2cc(O)cc(O)c21` [Example 80, 2-[(2-bromo-1H-indol-3-yl)methylene]-4,6-dihydroxy-1-benzofuran-3(2H)-one] were, in that order, 0.49 µM and more than 10 µM.
Turning to `O=C1C(=Cc2c(Br)[nH]c3ccccc23)Oc2c1ccc(O)c2O` [Example 81, 2-[(2-bromo-1H-indol-3-yl)methylene]-6,7-dihydroxy-1-benzofuran-3(2H)-one], the IC50 in experiment [1] (setting [3]) is more than 20 µM; in experiment [2] (read-out: PI3Kα Avg. IC50), 0.234 µM.
Take `Cc1c(C=C2Oc3cc(O)cc(O)c3C2=O)c2ccccc2n1CCCl` [Example 92, 2-{[1-(2-chloroethyl)-2-methyl-1H-indol-3-yl]methylene}-4,6-dihydroxy-1-benzofuran-3(2H)-one]: the results for the IC50 in experiment [1] (setting [3]) and in experiment [2] (read-out: PI3Kα Avg. IC50) were 2.6 µM and 2.04 µM, respectively.
The corresponding values for `Cc1c(C=C2Oc3cc(O)cc(O)c3C2=O)c2ccccc2n1CCCCl` [Example 93, 2-{[1-(3-chloropropyl)-2-methyl-1H-indol-3-yl]methylene}-4,6-dihydroxy-1-benzofuran-3(2H)-one] are more than 5 µM and 2.38 µM.
Turning to `O=C1C(=Cc2c(-c3ccccc3)n(Cc3cccnc3)c3ccccc23)Oc2cc(O)cc(O)c21` [Example 153, 4,6-dihydroxy-2-{[2-phenyl-1-(pyridin-3-ylmethyl)-1H-indol-3-yl]methylene}-1-benzofuran-3(2H)-one], the IC50 is 2.9 µM in experiment [1] (setting [3]) and 1.58 µM in experiment [2] (read-out: PI3Kα Avg. IC50).
In the case of `O=C1C(=Cc2c(-c3ccccc3)n(Cc3ccncc3)c3ccccc23)Oc2cc(O)cc(O)c21` [Example 154, 4,6-dihydroxy-2-{[2-phenyl-1-(pyridin-4-ylmethyl)-1H-indol-3-yl]methylene}-1-benzofuran-3(2H)-one], the figures for the half-maximal inhibitory concentration (IC50) in experiment [1] (setting [3]) and in experiment [2] (read-out: PI3Kα Avg. IC50) were 0.54 µM and 1.58 µM, respectively.
The like results for `O=C1C(=Cc2c(-c3ccccc3)n(CCN3CCNCC3)c3ccccc23)Oc2cc(O)cc(O)c21` [Example 160, 4,6-dihydroxy-2-{[2-phenyl-1-(2-piperazin-1-ylethyl)-1H-indol-3-yl]methylene}-1-benzofuran-3(2H)-one] were, in that order, 0.82 µM and 1.01 µM.
The like results for `NC(=O)Cn1c(-c2ccccc2)c(C=C2Oc3cc(O)cc(O)c3C2=O)c2ccccc21` [Example 161, 2-{3-[(4,6-dihydroxy-3-oxo-1-benzofuran-2(3H)-ylidene)methyl]-2-phenyl-1H-indol-1-yl}acetamide] were, in that order, 0.6 µM and 1.76 µM.
Take `Cc1[nH]c2ccc([N+](=O)[O-])cc2c1C=C1Oc2cc(O)cc(O)c2C1=O` [Example 162, 4,6-dihydroxy-2-[(2-methyl-5-nitro-1H-indol-3-yl)methylene]-1-benzofuran-3(2H)-one]: the concentration for half-maximal inhibition (IC50) in experiment [1] (setting [3]) is more than 20 µM; in experiment [2] (read-out: PI3Kα Avg. IC50), 2.45 µM.
Turning to `N#Cc1ccc2c(C=C3Oc4cc(O)cc(O)c4C3=O)c[nH]c2c1` [Example 167, 3-[(4,6-dihydroxy-3-oxo-1-benzofuran-2(3H)-ylidene)methyl]-1H-indole-6-carbonitrile], the IC50 in experiment [1] (setting [3]) was determined as 5.3 µM; in experiment [2] (read-out: PI3Kα Avg. IC50) it was 6.76 µM.
The like results for `O=C1C(=Cc2c[nH]c3cc4c(cc23)OCO4)Oc2cc(O)cc(O)c21` [Example 168, 2-(5H-[1,3]dioxolo[4,5-f]indol-7-ylmethylene)-4,6-dihydroxy-1-benzofuran-3(2H)-one] were, in that order, more than 20 µM and 6.54 µM.
`CS(=O)(=O)c1ccc2c(C=C3Oc4cc(O)cc(O)c4C3=O)c[nH]c2c1` [Example 169, 4,6-dihydroxy-2-{[6-(methylsulfonyl)-1H-indol-3-yl]methylene}-1-benzofuran-3(2H)-one]: the IC50 was found to be 9.1 µM in experiment [1] (setting [3]) and 3.59 µM in experiment [2] (read-out: PI3Kα Avg. IC50).
The corresponding values for `Cc1ccc2[nH]cc(C=C3Oc4cc(O)cc(O)c4C3=O)c2c1` [Example 170, 4,6-dihydroxy-2-[(5-methyl-1H-indol-3-yl)methylene]-1-benzofuran-3(2H)-one] are more than 20 µM and 5.77 µM.
For the molecule `O=C1C(=Cc2c[nH]c3cc(Cl)ccc23)Oc2cc(O)cc(O)c21` [Example 172, 2-[(6-chloro-1H-indol-3-yl)methylene]-4,6-dihydroxy-1-benzofuran-3(2H)-one], the IC50 in experiment [1] (setting [3]) was 19 µM; in experiment [2] (read-out: PI3Kα Avg. IC50), 0.936 µM.
The like results for `O=C1C(=Cc2c[nH]c3cc(F)ccc23)Oc2cc(O)cc(O)c21` [Example 176, 2-[(6-fluoro-1H-indol-3-yl)methylene]-4,6-dihydroxy-1-benzofuran-3(2H)-one] were, in that order, 8.7 µM and 1.55 µM.
On to `O=C1C(=Cc2c[nH]c3ccc([N+](=O)[O-])cc23)Oc2cc(O)cc(O)c21` [Example 178, 4,6-dihydroxy-2-[(5-nitro-1H-indol-3-yl)methylene]-1-benzofuran-3(2H)-one], for which the results for the half-inhibitory concentration (IC50) in experiment [1] (setting [3]) and in experiment [2] (read-out: PI3Kα Avg. IC50) were 12.5 µM and 1.47 µM, respectively.
The corresponding values for `O=C1C(=Cc2c[nH]c3cc([N+](=O)[O-])ccc23)Oc2cc(O)cc(O)c21` [Example 179, 4,6-dihydroxy-2-[(6-nitro-1H-indol-3-yl)methylene]-1-benzofuran-3(2H)-one] are 16 µM and 2.47 µM.
